Experimental data published in US8080423B2, “Reagent containing protease reaction promoter and/or colorant stabilizer” (Asahi Kasei Pharma Corporation, priority 2004, dated 2011).
Like-named read-outs stand apart in the source and are kept apart here.

Tested on: Neutral protease (manufactured by Toyobo Co., Ltd.)
Assay: Screening of protease reaction promoter (Example 1)
Format: biochemical
Conditions: for protease reaction promoting effect (in words): judged from Table 1
Experimental: 1) R-1: Reagent for Protein Decomposition
2) R-2: Reagent for Glycated Amino Acid Detection
The following substances were independently used as a test sample. Note that concentrations described in parentheses each represent a final concentration of the substance in the reagent R1.
Absorbance before the addition of the reagent R-2 and 5 minutes after the addition was measured at 660 nm. […] The AH-AL shown in Table 1 is a difference obtained by subtracting absorbance AL which was obtained from the primary calibrator at level 2 (5.38%) from absorbance AH which was obtained from the primary calibrator at level 4 (9.88%). Here, if AH-AL is large, the sample is judged to have a protease reaction promoting effect. In particular, when AH-AL is 20 or more, the sample has an excellent promoting effect.

[1] = test sample 1% in R-1, 660 nm, 20 or more = excellent promoting effect
[2] = test sample 2 mM in R-1, 660 nm

SMILES	AH (absorbance from primary calibrator at level 4 (9.88%)) (test sample 1% in R-1, 660 nm)	AL (absorbance from primary calibrator at level 2 (5.38%)) (test sample 1% in R-1, 660 nm)	AH − AL [1] [mAbs]	protease reaction promoting effect (in words)	other results
CCCCCCCCCCCC[N+](C)(C)CC(=O)[O-] [AM-301, betaine lauryl dimethylaminoacetate]	122.0	109.9	12.1	–	–
Nc1ncnc2c1ncn2[C@@H]1O[C@H](COP(=O)(O)OP(=O)(O)OP(=O)(O)O)[C@@H](O)[C@H]1O [ATP, adenosine 5′-triphosphate, reference compound]	–	–	–	–	AH (absorbance from primary calibrator at level 4 (9.88%)) [2]: 57.8; AH − AL [2]: 3.6 mAbs; AL (absorbance from primary calibrator at level 2 (5.38%)) [2]: 54.2
C[C@H](CCC(=O)NCCC[N+](C)(C)CCCS(=O)(=O)[O-])[C@H]1CC[C@H]2[C@@H]3[C@H](O)C[C@@H]4C[C@H](O)CC[C@]4(C)[C@H]3C[C@H](O)[C@]12C [CHAPS, 3-[(3-cholamidopropyl)dimethyl-ammonio]propanesulfonic acid, reference compound]	111.4	104.5	6.9	–	–
CCCCCCCCCCCCCOCCOCCOCCOCCOCCOCCOCC(=O)[O-].[Na+] [ECTD-6NEX, sodium polyoxyethylene(6)tridecyl ether acetate]	82.9	53.4	29.5	effects were observed	–
Cc1cc2nc3c(=O)[nH]c(=O)nc-3n(C[C@H](O)[C@H](O)[C@H](O)COP(=O)(O)OP(=O)(O)OC[C@H]3O[C@@H](n4cnc5c(N)ncnc54)[C@H](O)[C@@H]3O)c2cc1C [FAD, flavin adenine dinucleotide, reference compound]	–	–	–	–	AH (absorbance from primary calibrator at level 4 (9.88%)) [2]: 46.2; AH − AL [2]: 0.7 mAbs; AL (absorbance from primary calibrator at level 2 (5.38%)) [2]: 45.5
CCCCCCCCCCCC(=O)N(C)CCS(=O)(=O)[O-].[Na+] [LMT, sodium N-lauroyl methyl taurinate]	102.4	73.0	29.4	effects were observed	–
CCCCCCCCCCCCOP(=O)(O)O [Phosten HLP, lauryl phosphate]	134.6	121.9	12.7	–	–
CCCCCCCCCCCCOCCOCCOS(=O)(=O)O.OCCN(CCO)CCO [SBL-2T-36, triethanolamine polyoxyethylene(2)lauryl ether sulfate]	93.3	65.3	28.0	effects were observed	–
CCCCCCCCCCCCOCCOCCOCCOCCOS(=O)(=O)O.OCCN(CCO)CCO [SBL-4T, triethanolamine polyoxyethylene(4)lauryl ether sulfate]	103.2	75.2	28.0	effects were observed	–
CCCCCCCCCCCCOS(=O)(=O)[O-].[Na+] [SLS, sodium lauryl sulfate, reference compound]	53.3	48.7	4.6	–	–
O=NO [Sodium nitrite, sodium nitrite, reference compound]	–	–	–	–	AH (absorbance from primary calibrator at level 4 (9.88%)): 107.9; AH − AL: 26.2 mAbs; AL (absorbance from primary calibrator at level 2 (5.38%)): 81.7
O=[N+]([O-])c1ccc(-[n+]2nc(-c3ccc(S(=O)(=O)O)cc3S(=O)(=O)O)nn2-c2ccc(I)cc2)c([N+](=O)[O-])c1 [WST-3, 2-(4-iodophenyl)-3-(2,4-dinitrophenyl)-5-(2,4-disulfophenyl)-2H-tetrazolium, reference compound]	–	–	–	–	AH (absorbance from primary calibrator at level 4 (9.88%)) [2]: 184.6; AH − AL [2]: 23.7 mAbs; AL (absorbance from primary calibrator at level 2 (5.38%)) [2]: 160.9
